Measured values reported in patent publication US20260364145A1, “MODIFIED CAVEOLIN-1 PEPTIDE FORMULATIONS AND METHODS OF MANUFACTURING AND USE THEREOF” (REIN THERAPEUTICS, INC., priority 2023, published 2026).
Several values for one entry are separate records, joined by “and”; a condition that tells them apart may be missing. Equal entries are not always repeated. Where two headings read alike, the source gives them in different places. Non-standard residues stand in square brackets, D forms with d. Residues, ends and D or L forms follow the SMILES beside them.

How the values were obtained:
[1] = APi2355 concentrations in BALF and tissues at 42 days post-treatment (LC/MS/MS); format: in vivo, rat (Sprague Dawley); details: for BALF concentration / Heart concentration / Kidney concentration / Liver concentration / Lung concentration / Skin concentration: SC 2.0 mg/kg, listed as APi2335, 2 mg/kg, 60480 min; for concentration at 1008 h: rat, sc, 2 mg/kg
Aqueous solubility = format: physicochemical
[2] = Plasma pharmacokinetics after single-dose subcutaneous administration; format: in vivo, rat (Sprague Dawley); details: for plasma concentration / concentration at 1 h / concentration at 2 h / concentration at 4 h / concentration at 8 h / concentration at 24 h / concentration at 48 h / concentration at 96 h / concentration at 168 h / concentration at 240 h / concentration at 336 h / concentration at 528 h / concentration at 696 h / concentration at 840 h / concentration at 1008 h: SC 2.0 mg/kg, 2 mg/kg; for concentration at 1 h / concentration at 2 h / concentration at 4 h / concentration at 8 h / concentration at 24 h / concentration at 48 h / concentration at 96 h / concentration at 168 h / concentration at 240 h / concentration at 336 h / concentration at 528 h / concentration at 696 h / concentration at 840 h / concentration at 1008 h: rat, plasma, sc
[3] = individual rats, Group 1, MSP #3 (W/O/W)
[4] = individual rats, Group 2, MSP #5 (S/O/W)

- concentration at 1008 h ([1]; balf, mean, Group 1, MSP #3 (W/O/W), read-out: BALF concentration, Avg.): 2.11 ng/mL
- concentration at 1008 h ([1]; balf, mean, Group 2, MSP #5 (S/O/W), read-out: BALF concentration, Avg.): 1.27 ng/mL
- concentration at 1008 h ([1]; heart, mean, Group 1, MSP #3 (W/O/W), read-out: Heart concentration, Avg.): 9.35 ng/g
- concentration at 1008 h ([1]; heart, mean, Group 2, MSP #5 (S/O/W), read-out: Heart concentration, Avg.): 12.9 ng/g
- concentration at 1008 h ([1]; injection site skin, injection site skin, mean, Group 1, MSP #3 (W/O/W), read-out: Skin concentration, Avg.): 18.6 ng/g
- concentration at 1008 h ([1]; injection site skin, injection site skin, mean, Group 2, MSP #5 (S/O/W), read-out: Skin concentration, Avg.): 4.93 ng/g
- concentration at 1008 h ([1]; kidney, individual rats, Group 2, MSP #5 (S/O/W), read-out: Kidney concentration): 33.1 ng/g
- concentration at 1008 h ([1]; kidney, mean, Group 1, MSP #3 (W/O/W), read-out: Kidney concentration, Avg.): 55.7 ng/g
- concentration at 1008 h ([1]; kidney, mean, Group 2, MSP #5 (S/O/W), read-out: Kidney concentration, Avg.): 38.2 ng/g
- concentration at 1008 h ([1]; liver, mean, Group 1, MSP #3 (W/O/W), read-out: Liver concentration, Avg.): 2.62 ng/g
- concentration at 1008 h ([1]; liver, mean, Group 2, MSP #5 (S/O/W), read-out: Liver concentration, Avg.): 4.09 ng/g
- concentration at 1008 h ([1]; lung, individual rats, Group 2, MSP #5 (S/O/W), read-out: Lung concentration): 35.9 ng/g
- concentration at 1008 h ([1]; lung, mean, Group 1, MSP #3 (W/O/W), read-out: Lung concentration, Avg.): 40.3 ng/g
- concentration at 1008 h ([1]; lung, mean, Group 2, MSP #5 (S/O/W), read-out: Lung concentration, Avg.): 38.1 ng/g
- aqueous solubility (Aqueous solubility): relatively low aqueous solubility
- plasma concentration ([2]; 1 hr, individual rats, Group 1, MSP #3 (W/O/W), 60 min): 16.02 ng/mL and 311.08 ng/mL
- plasma concentration ([2]; 2 hr, individual rats, Group 1, MSP #3 (W/O/W), 120 min): 350.92 ng/mL and 558.41 ng/mL
- plasma concentration ([2]; 4 hr, individual rats, Group 1, MSP #3 (W/O/W), 240 min): 501.64 ng/mL and 36.54 ng/mL
- plasma concentration ([2]; 8 hr, individual rats, Group 1, MSP #3 (W/O/W), 480 min): 39.13 ng/mL and 12.62 ng/mL
- plasma concentration ([2]; 1 day, individual rats, Group 1, MSP #3 (W/O/W), 1440 min): 34.98 ng/mL and 10.17 ng/mL
- plasma concentration ([2]; 2 day, individual rats, Group 1, MSP #3 (W/O/W), 2880 min): 3.46 ng/mL
- plasma concentration ([2]; 4 day, individual rats, Group 1, MSP #3 (W/O/W), 5760 min): 1.90 ng/mL
- plasma concentration ([2]; 7 day, individual rats, Group 1, MSP #3 (W/O/W), 10080 min): 5.66 ng/mL
- plasma concentration ([2]; 10 day, individual rats, Group 1, MSP #3 (W/O/W), 14400 min): 2.17 ng/mL
- plasma concentration ([2]; 14 day, individual rats, Group 1, MSP #3 (W/O/W), 20160 min): 6.77 ng/mL and 6.89 ng/mL
- plasma concentration ([2]; 22 day, individual rats, Group 1, MSP #3 (W/O/W), 31680 min): 7.52 ng/mL and 9.84 ng/mL
- plasma concentration ([2]; 29 day, individual rats, Group 1, MSP #3 (W/O/W), 41760 min): 0.91 ng/mL and 1.57 ng/mL
- plasma concentration ([2]; 35 day, individual rats, Group 1, MSP #3 (W/O/W), 50400 min): 0.32 ng/mL and 0.48 ng/mL
- plasma concentration ([2]; 42 day, individual rats, Group 1, MSP #3 (W/O/W), 60480 min): 0.11 ng/mL and 4.85 ng/mL
- fraction of total exposure in the first 3 weeks after SC administration ([2]; first 3 weeks, SC 2.0 mg/kg APi2355): Approximately ⅔
- concentration at 1 h ([2]; 1 hr, mean, Group 1, MSP #3 (W/O/W)): 157 ng/mL
- concentration at 1 h ([2]; 1 hr, mean, Group 2, MSP #5 (S/O/W)): 175 ng/mL
- concentration at 2 h ([2]; 2 hr, mean, Group 1, MSP #3 (W/O/W)): 198 ng/mL
- concentration at 2 h ([2]; 2 hr, mean, Group 2, MSP #5 (S/O/W)): 287 ng/mL
- concentration at 4 h ([2]; 4 hr, mean, Group 1, MSP #3 (W/O/W)): 185 ng/mL
- concentration at 4 h ([2]; 4 hr, mean, Group 2, MSP #5 (S/O/W)): 195 ng/mL
- concentration at 8 h ([2]; 8 hr, mean, Group 1, MSP #3 (W/O/W)): 195 ng/mL
- concentration at 8 h ([2]; 8 hr, mean, Group 2, MSP #5 (S/O/W)): 130 ng/mL
- concentration at 24 h ([2]; 1 day, mean, Group 1, MSP #3 (W/O/W)): 10.7 ng/mL
- concentration at 24 h ([2]; 1 day, mean, Group 2, MSP #5 (S/O/W)): 9.53 ng/mL
- concentration at 48 h ([2]; 2 day, mean, Group 1, MSP #3 (W/O/W)): 3.2 ng/mL
- concentration at 48 h ([2]; 2 day, mean, Group 2, MSP #5 (S/O/W)): 5.23 ng/mL
- concentration at 96 h ([2]; 4 day, mean, Group 1, MSP #3 (W/O/W)): 3.22 ng/mL
- concentration at 96 h ([2]; 4 day, mean, Group 2, MSP #5 (S/O/W)): 3.69 ng/mL
- concentration at 168 h ([2]; 7 day, mean, Group 1, MSP #3 (W/O/W)): 3.34 ng/mL
- concentration at 168 h ([2]; 7 day, mean, Group 2, MSP #5 (S/O/W)): 3.37 ng/mL
- concentration at 240 h ([2]; 10 day, mean, Group 1, MSP #3 (W/O/W)): 5.22 ng/mL
- concentration at 240 h ([2]; 10 day, mean, Group 2, MSP #5 (S/O/W)): 10.5 ng/mL
- concentration at 336 h ([2]; 14 day, individual rats, Group 2, MSP #5 (S/O/W), read-out: plasma concentration): 0.98 ng/mL
- concentration at 336 h ([2]; 14 day, mean, Group 1, MSP #3 (W/O/W), read-out: plasma concentration, Avg.): 5.41 ng/mL
- concentration at 336 h ([2]; 14 day, mean, Group 2, MSP #5 (S/O/W), read-out: plasma concentration, Avg.): 1.14 ng/mL
- concentration at 528 h ([2]; 22 day, mean, Group 1, MSP #3 (W/O/W)): 6.35 ng/mL
- concentration at 528 h ([2]; 22 day, mean, Group 2, MSP #5 (S/O/W)): 5.26 ng/mL
- concentration at 696 h ([2]; 29 day, mean, Group 1, MSP #3 (W/O/W)): 2.53 ng/mL
- concentration at 696 h ([2]; 29 day, mean, Group 2, MSP #5 (S/O/W)): 2 ng/mL
- concentration at 840 h ([2]; 35 day, mean, Group 1, MSP #3 (W/O/W)): 0.57 ng/mL
- concentration at 840 h ([2]; 35 day, mean, Group 2, MSP #5 (S/O/W)): 0.26 ng/mL
- concentration at 1008 h ([2]; 42 day, mean, Group 1, MSP #3 (W/O/W)): 1.2 ng/mL
- concentration at 1008 h ([2]; 42 day, mean, Group 2, MSP #5 (S/O/W)): 0.72 ng/mL
SMILES: CC(=O)N[C@H](C)C(=O)N[C@H](C)C(=O)N[C@@H](CCC(=O)O)C(=O)NCC(=O)N[C@@H](CCCCN)C(=O)N[C@@H](C)C(=O)N[C@@H](CO)C(=O)N[C@@H](Cc1ccccc1)C(=O)N[C@H](C(=O)N[C@H](C(=O)N[C@@H](Cc1ccccc1)C(=O)N[C@H](C(=O)N[C@H](C(=O)N[C@H](C(=O)N[C@@H](CCCCN)C(=O)NCC(=O)N[C@@H](CO)C(=O)N[C@H](C)C(=O)N[C@H](C)C(N)=O)[C@@H](C)O)C(C)C)[C@@H](C)O)[C@@H](C)O)[C@@H](C)O [APi2355, Ac-aaEGKASFTTFTVTKGSaa-NH2] (Ac-[dA][dA]EGKASFTTFTVTKGS[dA][dA]-NH2)
- BALF concentration [1, 3]: 5.67 ng/mL and 1.45 ng/mL and 1.89 ng/mL and 1.47 ng/mL and 0.63 ng/mL and 1.53 ng/mL
- Heart concentration [1, 3]: 10.46 ng/g and 13.81 ng/g and 8.97 ng/g and 11.09 ng/g and 3.41 ng/g and 8.39 ng/g
- Kidney concentration [1, 3]: 63.91 ng/g and 53.55 ng/g and 30.02 ng/g and 62.91 ng/g and 57.32 ng/g and 66.29 ng/g
- Liver concentration [1, 3]: 5.46 ng/g and 1.23 ng/g and 0.69 ng/g and 1.85 ng/g and 3.65 ng/g and 2.86 ng/g
- Lung concentration [1, 3]: 37.40 ng/g and 29.17 ng/g and 36.51 ng/g and 62.92 ng/g and 36.86 ng/g and 38.80 ng/g
- BALF concentration [1, 4]: 0.45 ng/mL and 0.23 ng/mL and 0.70 ng/mL and 0.52 ng/mL and 4.10 ng/mL and 2.17 ng/mL and 0.71 ng/mL
- Heart concentration [1, 4]: 14.37 ng/g and 14.17 ng/g and 9.32 ng/g and 7.53 ng/g and 15.87 ng/g and 12.57 ng/g and 16.18 ng/g
- Kidney concentration [1, 4]: 31.78 ng/g and 41.08 ng/g and 52.67 ng/g and 38.43 ng/g and 33.98 ng/g and 36.28 ng/g
- Liver concentration [1, 4]: 8.34 ng/g and 8.26 ng/g and 0.24 ng/g and 0.47 ng/g and 1.33 ng/g and 4.81 ng/g and 5.22 ng/g
- Lung concentration [1, 4]: 35.15 ng/g and 31.08 ng/g and 28.00 ng/g and 53.76 ng/g and 47.20 ng/g and 35.92 ng/g
- Skin concentration ([1]; injection site skin, individual rats, Group 1, MSP #3 (W/O/W)): 29.72 ng/g and 13.12 ng/g and 14.02 ng/g and 20.81 ng/g and 2.28 ng/g and 31.92 ng/g
- Skin concentration ([1]; injection site skin, individual rats, Group 2, MSP #5 (S/O/W)): 4.08 ng/g and 4.10 ng/g and 2.92 ng/g and 3.69 ng/g and 3.40 ng/g and 14.71 ng/g and 1.60 ng/g
